PubChem BioAssay AID1745844 (Carcinogenic Potency Database (CPDB), 2022)
Activity calls are given as the source filed them. No rule for the calls is given here.

System: rodent lifetime carcinogenesis bioassay, tumor incidence TD50
Assay: chronic cancer bioassays in animals – CPDB, compiled studies (AID 1745844)
Conditions: in feed, dosed 78 weeks

C=CCOc1ccccc1OCC(O)CNC(C)C (configuration not stated)
inactive: TD50 (mouse, strain CF-1, females, site: liver, lesion: carcinoma, study length 91 weeks) 2400 mg/kg/day | carcinogen call (mouse, strain CF-1, females, site: liver, lesion: one or several types, types not named, study length 78 weeks) negative | carcinogen call (mouse, strain CF-1, females, site: lung, lesion: adenoma, study length 91 weeks) negative | TD50 (mouse, strain CF-1, females, site: lung, lesion: carcinoma, study length 78 weeks) 425 mg/kg/day | carcinogen call (mouse, strain CF-1, females, site: lung, lesion: neurofibrosarcoma, study length 91 weeks) negative | TD50 (mouse, strain CF-1, males, site: liver, lesion: carcinoma, study length 78 weeks) 2620 mg/kg/day | TD50 (mouse, strain CF-1, males, site: liver, lesion: parenchymal adenoma, study length 91 weeks) 2120 mg/kg/day | carcinogen call (mouse, strain CF-1, males, site: lung, lesion: adenoma, study length 78 weeks) negative | carcinogen call (mouse, strain CF-1, males, site: lung, lesion: adenoma, study length 91 weeks) negative | carcinogen call (mouse, strain CF-1, males, site: lung, lesion: carcinoma, study length 78 weeks) negative | carcinogen call (rat, strain Charles River CD (Sprague-Dawley), females, site: liver, lesion: one or several types, types not named, study length 78 weeks) negative | TD50 (rat, strain Charles River CD (Sprague-Dawley), males, site: liver, lesion: hepatocellular adenoma, study length 78 weeks) 1680 mg/kg/day
